pIC50: −log10 of the molar value. One block for each compound: values may come before it.
Test system: NCI-H929 complex spheroids, viability % test/control
Assay: Anticancer human tumor NCI-H929 cell line growth inhibition [RAS];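 note: compound exposure lasted seven days before viability was read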
Conditions: for pIC50: curve of first compound; for viability, T/C: stronger effect = lower value
Excerpt: RAS pathway inhibitors in Combinations in Complex Spheroids
A high-throughput screen of multi-cell type tumor spheroids was designed to identify active combinations of RAS pathway inhibitors and targeted small molecules. Complex spheroids include a stromal component modeled by human endothelial cells (HUVEC) and fibroblasts modeled by human mesenchymal stem cells (MSCs). The concentration ranges selected for each drug and investigational agent were based upon clinically achievable concentrations if the clinical Cmax of the agent was known.
Compounds. The drugs and investigational agents: abemaciclib (NSC768073), cobimetinib (NSC768068), divarasib (GDC6063, NSC841802), docetaxel (NSC628503), GDC-1971 (RLY-1971, NSC841576), gemcitabine (NSC613327), inavolisib (NSC800729), ipatasertib (NSC767898), KB-0742 (NSC834161), MRTX-1133 (NSC836407), osimertinib (NSC779217), RMC-4630 (NSC839698), RMC-6236 (NSC851965), RMC-6291 (NSC852671), Ro-3306 (NSC812927), sapanisertib (NSC764658), SN-38 (NSC673596), staurosporine (NSC755774), SY5609 (NSC837396), and tovorafenib (DAY101, NSC766906), were obtained from the National Cancer Institute (NCI) Developmental Therapeutics Program Chemical Repository. The FDA-approved anticancer drug set is available from the NCI Developmental Therapeutics Program. […] The stock solutions were prepared in dimethyl sulfoxide (DMSO, Sigma-Aldrich, St. Louis, MO, cat. D2650) at 800-fold the tested concentration and stored at -70 degrees C prior to their use. All drugs and investigational agents were tested over a range starting from a high concentration at or near the clinical Cmax and decreasing in half-log increments. If the clinical Cmax for an agent had not been determined, the highest concentration tested was 10 microM.
Cell Culture. All cells were maintained in an incubator at 37 degrees C and 5% CO2 with 95% humidity. The PDC lines were cultured according to standard operating procedures established by the NCI PDMR. All PDCs were thawed and cultured in Matrigel-coated flasks prepared with a working solution of 1X Ham's F-12 nutrient mix, without supplementation (Invitrogen, Waltham, MA, cat. 11765054), 100 U/mL penicillin-streptomycin (Invitrogen, cat. 15140122), and 2.5% Matrigel (Corning Inc., Corning, NY, cat. 354248) for the first three passages. The 362531-283-R-J2-PDC and 782815-120-R-J1-PDC lines were cultured in 6C/Colon 1B media, which includes advanced DMEM/F-12 (Thermo Fisher Scientific, cat. 12634028), 10 mM HEPES (Thermo Fisher Scientific, cat. 15630080), 1X GlutaMAX supplement (Thermo Fisher Scientific, cat. 35050061), 0.1 mg/mL primocin (InvivoGen, San Diego, CA, cat. ant-pm-2), 10% defined fetal bovine serum, heat inactivated (HyClone Laboratories Inc., Logan, UT, cat. SH30070.03HI), 50% L-WRN conditioned media (ATCC, cat. CRL-3276), 1.25 mM N-Acetyl-L-cysteine (Sigma-Aldrich, cat. A9165), 10 mM nicotinamide (Sigma-Aldrich, cat. N0636), 1X B-27 supplement (Thermo Fisher Scientific, cat. 17504044), 1X N-2 supplement (Thermo Fisher Scientific, cat. 17502048), 50 ng/mL human EGF (Thermo Fisher Scientific, cat. PHG0311), and 10 microM Y-27632 dihydrochloride (Tocris Bioscience, cat. 1254). The K12877-001-R-J1-PDC line was cultured in 6I media, which includes all 6C/Colon 1B media plus 10 ng/mL human FGF-10 (PeproTech, cat. 100-26), 1 ng/mL human FGF-2 (PeproTech, cat. 100-18B), 1 µM prostaglandin E2 (Tocris Bioscience, cat. 2296), […] hydrocortisone (Sigma-Aldrich, cat. H4001), and […] bovine insulin (Sigma-Aldrich, cat. I6634). The K86415-001-R-J1-PDC line was cultured in 6D media, which includes all 6C/Colon 1B media components minus the L-WRN conditioned media. The 485176-168-R4-J1-PDC was cultured in PANC media, which includes all 6C/Colon 1B media plus 100 ng/mL human FGF-10 (PeproTech, cat. 100-26), 500 nM SB-431542 (Selleckchem, cat. S1067), and 10 nM gastrin (Tocris Bioscience, cat. 3006). […]

pIC50 (second compound 0.000949 µM): 7.12 | pIC50 (second compound 0.003 µM): 7.12 | pIC50 (second compound 0.00949 µM): 7.13 | pIC50 (second compound 0.03 µM): 7.15 | pIC50 (second compound 0.0949 µM): 7.17 | pIC50 (second compound 0.3 µM): 7.20
SMILES: CC1(O)CCCC1n1c(=O)c(C(F)F)cc2cnc(NC3CCN(S(C)(=O)=O)CC3)nc21 (centres undefined) + CCn1c(-c2cccnc2C(C)OC)c2c3cc(ccc31)N1CCOC(CC(NC(=O)C(C(C)C)N(C)C(=O)C3(F)CCN(C(=O)C#CC(C)(C)N(C)C)CC3)C(=O)N3CCCC(N3)C(=O)OCC(C)(C)C2)C1
viability, T/C (second compound 0.000949 µM, first compound 0.0316 µM): 104% | viability, T/C (second compound 0.000949 µM, first compound 0.1 µM): 32.6% | viability, T/C (second compound 0.000949 µM, first compound 0.316 µM): 1.35% | viability, T/C (second compound 0.000949 µM, first compound 1 µM): 2.44% | viability, T/C (second compound 0.000949 µM, first compound 3.16 µM): 1.45% | viability, T/C (second compound 0.000949 µM, first compound 10 µM): 0.12% | viability, T/C (second compound 0.003 µM, first compound 0.0316 µM): 100% | viability, T/C (second compound 0.003 µM, first compound 0.1 µM): 34.8% | viability, T/C (second compound 0.003 µM, first compound 0.316 µM): 1.28% | viability, T/C (second compound 0.003 µM, first compound 1 µM): 2.8% | viability, T/C (second compound 0.003 µM, first compound 3.16 µM): 1.23% | viability, T/C (second compound 0.003 µM, first compound 10 µM): 0.1% | viability, T/C (second compound 0.00949 µM, first compound 0.0316 µM): 98.1% | viability, T/C (second compound 0.00949 µM, first compound 0.1 µM): 33.3% | viability, T/C (second compound 0.00949 µM, first compound 0.316 µM): 0.97% | viability, T/C (second compound 0.00949 µM, first compound 1 µM): 2.52% | viability, T/C (second compound 0.00949 µM, first compound 3.16 µM): 1.36% | viability, T/C (second compound 0.00949 µM, first compound 10 µM): 0.09% | viability, T/C (second compound 0.03 µM, first compound 0.0316 µM): 99.8% | viability, T/C (second compound 0.03 µM, first compound 0.1 µM): 28.9% | viability, T/C (second compound 0.03 µM, first compound 0.316 µM): 1.21% | viability, T/C (second compound 0.03 µM, first compound 1 µM): 2.78% | viability, T/C (second compound 0.03 µM, first compound 3.16 µM): 1.08% | viability, T/C (second compound 0.03 µM, first compound 10 µM): 0.11% | viability, T/C (second compound 0.0949 µM, first compound 0.0316 µM): 99.9% | viability, T/C (second compound 0.0949 µM, first compound 0.1 µM): 24.5% | viability, T/C (second compound 0.0949 µM, first compound 0.316 µM): 1.16% | viability, T/C (second compound 0.0949 µM, first compound 1 µM): 2.55% | viability, T/C (second compound 0.0949 µM, first compound 3.16 µM): 1.28% | viability, T/C (second compound 0.0949 µM, first compound 10 µM): 0.12% | viability, T/C (second compound 0.3 µM, first compound 0.0316 µM): 103% | viability, T/C (second compound 0.3 µM, first compound 0.1 µM): 13.5% | viability, T/C (second compound 0.3 µM, first compound 0.316 µM): 1.13% | viability, T/C (second compound 0.3 µM, first compound 1 µM): 2.31% | viability, T/C (second compound 0.3 µM, first compound 3.16 µM): 1.74% | viability, T/C (second compound 0.3 µM, first compound 10 µM): 0.16%

pIC50 (second compound 0.0316 µM): 5.75 | pIC50 (second compound 0.1 µM): 5.74 | pIC50 (second compound 0.316 µM): 5.75 | pIC50 (second compound 1 µM): 5.75 | pIC50 (second compound 3.16 µM): 5.75 | pIC50 (second compound 10 µM): 5.74
SMILES: CCC(CC)c1cc(NC2CCC(N)C2)n2nccc2n1 (centres undefined) + C#Cc1c(F)ccc2cc(O)cc(-c3ncc4c(N5CC6CCC(C5)N6)nc(OCC56CCCN5CC(F)C6)nc4c3F)c12
viability, T/C (second compound 0.0316 µM, first compound 0.0316 µM): 95.1% | viability, T/C (second compound 0.0316 µM, first compound 0.1 µM): 95.2% | viability, T/C (second compound 0.0316 µM, first compound 0.316 µM): 101% | viability, T/C (second compound 0.0316 µM, first compound 1 µM): 109% | viability, T/C (second compound 0.0316 µM, first compound 3.16 µM): 1.07% | viability, T/C (second compound 0.0316 µM, first compound 10 µM): 0.31% | viability, T/C (second compound 0.1 µM, first compound 0.0316 µM): 97.2% | viability, T/C (second compound 0.1 µM, first compound 0.1 µM): 97.7% | viability, T/C (second compound 0.1 µM, first compound 0.316 µM): 99.7% | viability, T/C (second compound 0.1 µM, first compound 1 µM): 110% | viability, T/C (second compound 0.1 µM, first compound 3.16 µM): 1.11% | viability, T/C (second compound 0.1 µM, first compound 10 µM): 0.27% | viability, T/C (second compound 0.316 µM, first compound 0.0316 µM): 95.4% | viability, T/C (second compound 0.316 µM, first compound 0.1 µM): 98.1% | viability, T/C (second compound 0.316 µM, first compound 0.316 µM): 97.6% | viability, T/C (second compound 0.316 µM, first compound 1 µM): 113% | viability, T/C (second compound 0.316 µM, first compound 3.16 µM): 0.58% | viability, T/C (second compound 0.316 µM, first compound 10 µM): 0.23% | viability, T/C (second compound 1 µM, first compound 0.0316 µM): 93.8% | viability, T/C (second compound 1 µM, first compound 0.1 µM): 95.7% | viability, T/C (second compound 1 µM, first compound 0.316 µM): 99.7% | viability, T/C (second compound 1 µM, first compound 1 µM): 111% | viability, T/C (second compound 1 µM, first compound 3.16 µM): 0.22% | viability, T/C (second compound 1 µM, first compound 10 µM): 0.66% | viability, T/C (second compound 3.16 µM, first compound 0.0316 µM): 94.1% | viability, T/C (second compound 3.16 µM, first compound 0.1 µM): 98% | viability, T/C (second compound 3.16 µM, first compound 0.316 µM): 96.4% | viability, T/C (second compound 3.16 µM, first compound 1 µM): 113% | viability, T/C (second compound 3.16 µM, first compound 3.16 µM): 1.09% | viability, T/C (second compound 3.16 µM, first compound 10 µM): 0.81% | viability, T/C (second compound 10 µM, first compound 0.0316 µM): 102% | viability, T/C (second compound 10 µM, first compound 0.1 µM): 101% | viability, T/C (second compound 10 µM, first compound 0.316 µM): 99.1% | viability, T/C (second compound 10 µM, first compound 1 µM): 111% | viability, T/C (second compound 10 µM, first compound 3.16 µM): 0.7% | viability, T/C (second compound 10 µM, first compound 10 µM): 0.12%
